# In US20150259429A1, “CLUSTER OF DIFFERENTIATION 36 (CD36) AS A THERAPEUTIC TARGET FOR HIV INFECTION” (INSTITUT CURIE, priority 2012, published 2015):
# Where a SMILES comes first, the peptide text is derived from it. [ ]: non-standard residue; d: D form. dTrp(2-Me) = Cc1[nH]c2ccccc2c1C[C@@H](N)C(=O)O
# How the values were obtained:
# [1] = tested on: HIV-1-infected primary macrophages; assay: p24 Gag release by HIV-1-infected macrophages after siRNA transfection (ELISA); settings: Tsg101 knock down (positive control) compared with CD36 silencing
# [2] = tested on: HIV-1-infected macrophages; assay: CD36 mAb blocking assay: p24 in supernatant and cell lysate of HIV-1-infected macrophages (ELISA); settings: overnight exposure, comparison with CD36 ligands (FIG. 15E)
# [3] = target: CD36 (human), on primary macrophages or HeLa-CD36 cells (human) (UniProt P16671); assay: cell-based or functional assay
# CD36 [4] = settings: cited from earlier work
# CD36 [5] = settings: binding site competition; cited from earlier work
compound,measurement,setting,value
"CAGUUUAUCAUUCAAGUGUAA (listed as RNA, chemistry not given here) [Tsg101]",extent of the inhibition of p24 release,[1],similar
Trombospondin-1: endogenous ligand of CD36,release of p24,[2],none of the two ligands reduced
"type-I Collagen: endogenous ligand of CD36, purchased from Sigma",release of p24,[2],none of the two ligands reduced
CD36-specific mAb clone CLB-IVC7 (Immunotools) (antibody),"p24 release in the culture supernatant of HIV-1-infected macrophages (ELISA), titration of the mAb",[3],32 ng/mL
Cc1c(C)c2c(c(C)c1O)CC[C@@](C)(CCC[C@H](C)CCC[C@H](C)CCCC(C)C)O2 [α-tocopherol],uptake of oxLDLs into macrophages,CD36 [4],reduce
same,expression of CD36,CD36 [4]; macrophages,reduce
"Cc1[nH]c2ccccc2c1C[C@@H](NC(=O)[C@@H](N)Cc1cnc[nH]1)C(=O)N[C@@H](C)C(=O)N[C@@H](Cc1c[nH]c2ccccc12)C(=O)N[C@H](Cc1ccccc1)C(=O)N[C@@H](CCCCN)C(N)=O [Hexarelin, hexarelin] (H-H[dTrp(2-Me)]AW[dF]K-NH2)",CD36-mediated uptake of oxLDLs,CD36 [5],blocks
